Reference: US20040009126A1, “Inhalation system for prevention and treatment of intracellular infections” (priority 2002, published 2004)

Details: mice, intratracheal administration, lungs
Text: FIG. 2 is a graphical representation of the biodistribution of ciprofloxacin in the lungs upon administration of ciprofloxacin in liposomal form by inhalation and in free form by inhalation and orally.
The distribution following IT administration was compared with the distribution obtained in the lungs following an oral delivery of ciprofloxicin.

Compound: O=C(O)c1cn(C2CC2)c2cc(N3CCNCC3)c(F)cc2c1=O [free ciprofloxicin, ciprofloxicin]
- lung level of ciprofloxicin over time: negligible after one hour
